# Data published in patent US20220096529A1, “2-HYDROXYPROPYL-BETA-CYCLODEXTRIN (HPBETACD) FOR USE IN THE TREATMENT OF BREAST CANCER” (UNIVERSITY OF THE WITWATERSRAND, JOHANNESBURG, priority 2019, published 2022).
# “Also recorded” adds a separate entry of the source. Where two headings read alike, the source gives them in different places.
# How the values were obtained:
# HEK-293 cells = assay type: cell-based, human
# Experimental: (§1) Cells were cultured in appropriate medium supplemented with 10% FCS, penicillin (100 U/ml), and streptomycin (100 μg/ml) (Gibco) at 5% CO2 in a 37° C. incubator.
# (§2) Four different cell lines were used MCF7 (ER+). MDA-MB-231 (ER−), MRC-5 (Lung Fibroblasts) and HEK-293 (Embryonic kidney). MRC-5 and/or HEK-293 were used as control cell lines depending on availability.
# (§3) In order to determine whether HPβCD has the ability to induce cancer cell death a primary screening using an MTT assay was performed. Three different time points 24 hrs.
# MRC-5 cells = assay type: cell-based, human; details: for concentration for 50% growth inhibition in normal cells compared to cancerous cells: MRC-5 and HEK-293 vs cancerous cells
# Experimental: as §1, §2, §3
# MDA-MB-231 cells = test: Mice xenograft, triple negative breast cancer; assay type: in vivo, Nude Mice, MF-1 strain
# Experimental: Since the potency of HPβCD against breast cancer was established in our in vitro assays, a thorough investigation in a mice model was conducted (Nude Mice. MF-1 strain). MCF-7 and MDA-MB-231 cells were injected in 32 mice (16 for each cell type) and after tumour development, was treated with HPβCD (3000 mg/kg b.w.). Thrice a week dose treatment plan was followed throughout the study.
# To examine if HPβCD can be used as a future anti-breast cancer drug, mice xenografts were prepared. MCF7 cells (5 million) cells were injected in 16 mice with weekly β-estradiol supplementation. The study for triple negative induced breast cancer (MDA-MB-231) is complete. Up to 4 million cells were injected in 16 mice. This was subdivided in three more groups namely: Late stage, intermediate stage and early stage estrogen negative cancer. 4 mice were grouped as untreated (not receiving HPβCD), 4 for treated (late stage), 3 for treated (intermediate stage) and 3 for treated (early stage).
# This is because MDA-MB-231 cells are extremely aggressive in nature and that is the reason there is any adequate treatments except the side effects prone to chemotherapy. These 4 mice had to be euthanized at this point because of humane end points. In the late stage treated group, the treatment commenced when the size of the tumour was in between 900 mm^3 to 1350 mm^3 (FIG. 30 A, B, C).
# In the intermediate stage group (n=3), the treatment commenced when the size of the tumours reached […]. Again, after 10 doses of HPβCD treatment we saw the average size of the tumours went down to […] which is a staggering 94% decrease (FIG. 31 B, C) as compared to the untreated group. This was remarkable considering how invasive MDA-MB-231 cells are and HPβCD's ability to tame them was quite phenomenal. Finally, in the early stage group (n=3), the treatment commenced when the tumour size was 20 mm^3 (FIG. 33 A. B). […] These 3 mice were then kept for a period of 4 weeks to check for relapse of tumour because estrogen negative tumours have an extreme propensity to recur.
# [1] = AST/ALT assay of mice serum; assay type: in vivo
# Experimental: Post-euthanisation, the mice serum was analysed for AST/ALT ([…]) levels in order to observe if HPβCD treatment had any toxic effects on liver of treated mice (FIG. 37). The AST/ALT ratio gives an estimate of liver toxicity or damage. […] The AST/ALT ratio for all the early and intermediate groups was not different from the untreated group, was under the recommended ratio of 2 and the values were below the reference range (40 U/L) except for AST levels in the late group. In latter groups, the ratio of AST/ALT was 2.2 which was slightly above the recommended limit but was not found to be statistically different from the untreated group. […] In this regard review FIG. 37.
# [2] = intermediate stage, 3000 mg/kg b.w., 10 doses
substance,measurement,setting,value
2-hydroxypropyl-β-cyclodextrin [HPβCD],IC50,"HEK-293 cells; HEK-293, 24 hrs",22.8 mM
same,IC50,"HEK-293 cells; HEK-293, 48 hrs",26.5 mM
same,IC50,"HEK-293 cells; HEK-293, 72 hrs",50.3 mM
same,growth inhibition,"HEK-293 cells; HEK-293, till 10 mM HPβCD, 24 hrs and 48 hrs",absolutely zero growth inhibition
same,IC50,"MRC-5 cells; MRC-5, 24 hrs",20.7 mM
same,IC50,"MRC-5 cells; MRC-5, 48 hrs",19.9 mM
same,IC50,"MRC-5 cells; MRC-5, 72 hrs",41.7 mM
same,growth inhibition,"MRC-5 cells; MRC-5, till 10 mM HPβCD, 24 hrs and 48 hrs",absolutely zero growth inhibition
same,concentration for 50% growth inhibition in normal cells compared to cancerous cells,MRC-5 cells; 24 hrs,almost double
same,concentration for 50% growth inhibition in normal cells compared to cancerous cells,MRC-5 cells; 72 hrs,almost five times
same,tumour outcome,"MDA-MB-231 cells; early stage (20 mm^3 at start), 3000 mg/kg b.w., 10 doses, 3000 mg/kg",completely healed; also recorded: Complete healing of tumour
same,average size of the tumours,MDA-MB-231 cells; [2],784.18 mm3
same,tumour reduction compared to the untreated group,MDA-MB-231 cells; [2],94%
same,tumour reduction compared to the untreated group,"MDA-MB-231 cells; late stage, 3000 mg/kg b.w. intraperitoneally, 10 doses",73.9%
same,relapse of tumour,"MDA-MB-231 cells; three healed early stage mice, 4 weeks",no recurrence of the tumour; also recorded: no relapse at all
same,AST/ALT ratio,[1]; early and intermediate groups,< 2
same,ratio of AST/ALT,"[1]; late group, mice serum post-euthanisation",2.2
same,liver toxicity,"[1]; mouse, in vivo, 3000 mg/kg",caused no toxicity
